Reference: US11566007B2, “Ras inhibitors” (Revolution Medicines, Inc., priority 2019, dated 2023)

How the values were obtained:
[1] = test system: NCI-H358 cells (K-Ras G12C); assay: Potency assay: pERK in NCI-H358 cells; assay type: cell-based, human; details: Homo sapiens, NCI-H358; H358 KRAS G12C; read-out: pERK EC50
Outline: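 Compounds are dosed as ten 3-fold dilutions from a 10 mM DMSO stock, in duplicate, and left on cells for 4 h at 37 °C, 5% CO2. Phospho-ERK1/2 is then quantified by AlphaLISA SureFire Ultra or In-Cell Western, and IC50 is derived from a 4-parameter sigmoid against log concentration.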

[2] = test system: NCI-H358 (K-Ras G12C); assay: CellTiter-Glo cell viability assay, NCI-H358; assay type: cell-based, human; details: Homo sapiens, NCI-H358, 120 h, NCI-H358, 5-day treatment; class symbols; read-out: Additional H358 Cell Viability assay data (K-Ras G12C, IC50)
Outline: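 Luminescent viability readout on day 5 after direct compound addition to plated cells; plates sat ~30 min at room temperature before reading. Values expressed as percent of mean DMSO signal, curves fit with a four-parameter logistic model.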

[3] = molecular target: K-Ras G12C (Homo sapiens (Human), UniProt P01116+P62937, G12C); assay: Ras-Raf (BRAF RBD) disruption / FRET / MOA assay, KRAS G12C; assay type: biochemical; details: KRAS G12C; Ras-Raf disruption/FRET/MOA assay; read-out: IC50* KRAS G12C FRET data
Outline: (§1)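 Ras:RAF disruption was scored as a fall in TR-FRET ratio relative to DMSO. Compound ranged in 3-fold steps over 10 points from 30 μM final; incubation ran 3 h at 25° C, detection antibodies a further 1.5 h. Reported as IC50.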

[4] = molecular target: K-Ras G13C (Homo sapiens (Human), UniProt P01116+P62937, G13C); assay: Ras-Raf (BRAF RBD) disruption / FRET / MOA assay, KRAS G13C; assay type: biochemical; details: KRAS G13C; Ras-Raf disruption/FRET/MOA assay; read-out: IC50* KRAS G13C FRET data
Outline: as §1

[5] = molecular target: KRAS G12S (Homo sapiens (Human), UniProt P01116+P62937, G12S); assay: Ras-Raf (BRAF RBD) disruption / FRET / MOA assay, KRAS G12S; assay type: biochemical; details: Ras-Raf disruption/FRET/MOA assay; class symbols; read-out: KRAS G12S FRET data IC50
Outline: as §1

[6] = molecular target: KRAS G12D (Homo sapiens (Human), UniProt P01116+P62937, G12D); assay: Ras-Raf (BRAF RBD) disruption / FRET / MOA assay, KRAS G12D; assay type: biochemical; details: Ras-Raf disruption/FRET/MOA assay; class symbols; read-out: KRAS G12D FRET data IC50
Outline: as §1

[7] = molecular target: KRAS G12V (Homo sapiens (Human), UniProt P01116+P62937, G12V); assay: Ras-Raf (BRAF RBD) disruption / FRET / MOA assay, KRAS G12V; assay type: biochemical; details: read-out: IC50* KRAS G12V FRET data
Outline: as §1

[8] = molecular target: KRAS WT (Homo sapiens (Human), UniProt P01116+P62937); assay: Ras-Raf (BRAF RBD) disruption / FRET / MOA assay, KRAS WT; assay type: biochemical; details: read-out: IC50* KRAS WT FRET data
Outline: as §1

[9] = molecular target: KRAS G13D (Homo sapiens (Human), UniProt P01116+P62937, G13D); assay: Ras-Raf (BRAF RBD) disruption / FRET / MOA assay, KRAS G13D; assay type: biochemical; details: read-out: IC50* KRAS G13D FRET data
Outline: as §1

[10] = molecular target: NRAS G12C (Homo sapiens (Human), UniProt P01111+P62937, G12C); assay: Ras-Raf (BRAF RBD) disruption / FRET / MOA assay, NRAS G12C; assay type: biochemical; details: read-out: IC50* NRAS G12C FRET data
Outline: as §1

Chain of KRAS G12V (P01116-2 other isoform, or with tags, fused parts or gaps G12V): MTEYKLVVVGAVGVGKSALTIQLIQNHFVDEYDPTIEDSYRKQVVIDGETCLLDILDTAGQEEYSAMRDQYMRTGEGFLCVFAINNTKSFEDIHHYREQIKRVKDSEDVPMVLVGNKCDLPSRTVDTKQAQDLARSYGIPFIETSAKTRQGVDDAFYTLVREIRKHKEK
Chain of KRAS G12V (P62937 whole entry): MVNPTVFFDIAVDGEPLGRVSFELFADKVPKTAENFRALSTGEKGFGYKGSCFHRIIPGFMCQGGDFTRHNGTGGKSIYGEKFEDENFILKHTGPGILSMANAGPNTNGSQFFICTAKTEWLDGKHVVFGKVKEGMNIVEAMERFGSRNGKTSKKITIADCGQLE
Chain of KRAS WT (P01116-2 other isoform, or with tags, fused parts or gaps): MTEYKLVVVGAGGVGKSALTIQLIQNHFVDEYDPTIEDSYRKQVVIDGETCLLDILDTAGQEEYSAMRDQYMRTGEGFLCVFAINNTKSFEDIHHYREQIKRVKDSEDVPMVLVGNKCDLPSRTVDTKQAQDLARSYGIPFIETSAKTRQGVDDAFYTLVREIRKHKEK
Chain of KRAS WT (P62937 whole entry): as the sequence (P62937 whole entry) above
Chain of K-Ras G13C (P01116-2 other isoform, or with tags, fused parts or gaps G13C): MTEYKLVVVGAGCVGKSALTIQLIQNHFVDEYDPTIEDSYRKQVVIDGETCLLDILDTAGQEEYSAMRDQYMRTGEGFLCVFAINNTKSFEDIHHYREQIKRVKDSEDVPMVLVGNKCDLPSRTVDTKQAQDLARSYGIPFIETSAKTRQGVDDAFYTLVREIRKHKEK
Chain of K-Ras G13C (P62937 whole entry): as the sequence (P62937 whole entry) above
Chain of NRAS G12C (P01111 whole entry G12C): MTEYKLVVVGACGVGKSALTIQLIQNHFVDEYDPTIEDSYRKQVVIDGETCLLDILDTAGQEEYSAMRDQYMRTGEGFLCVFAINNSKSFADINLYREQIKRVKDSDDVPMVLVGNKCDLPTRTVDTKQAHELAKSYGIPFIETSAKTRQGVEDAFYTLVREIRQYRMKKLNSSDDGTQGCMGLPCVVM
Chain of NRAS G12C (P62937 whole entry): as the sequence (P62937 whole entry) above
Chain of KRAS G12D (P01116-2 other isoform, or with tags, fused parts or gaps G12D): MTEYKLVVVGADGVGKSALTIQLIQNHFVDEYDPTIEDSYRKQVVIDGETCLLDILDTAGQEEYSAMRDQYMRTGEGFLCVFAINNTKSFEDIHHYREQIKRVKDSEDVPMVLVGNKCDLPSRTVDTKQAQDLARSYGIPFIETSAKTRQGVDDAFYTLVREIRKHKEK
Chain of KRAS G12D (P62937 whole entry): as the sequence (P62937 whole entry) above
Chain of K-Ras G12C (P01116-2 other isoform, or with tags, fused parts or gaps G12C): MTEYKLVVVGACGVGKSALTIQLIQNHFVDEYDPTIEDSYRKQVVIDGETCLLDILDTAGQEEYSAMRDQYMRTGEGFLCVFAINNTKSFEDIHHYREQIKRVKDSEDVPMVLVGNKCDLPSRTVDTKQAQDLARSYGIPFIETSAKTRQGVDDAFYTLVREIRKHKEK
Chain of K-Ras G12C (P62937 whole entry): as the sequence (P62937 whole entry) above
Chain of KRAS G12S (P01116-2 other isoform, or with tags, fused parts or gaps G12S): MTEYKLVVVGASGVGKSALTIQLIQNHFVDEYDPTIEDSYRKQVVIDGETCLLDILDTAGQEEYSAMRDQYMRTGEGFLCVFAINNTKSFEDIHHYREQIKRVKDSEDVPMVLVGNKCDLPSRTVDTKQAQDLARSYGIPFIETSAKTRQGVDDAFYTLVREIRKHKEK
Chain of KRAS G12S (P62937 whole entry): as the sequence (P62937 whole entry) above
Chain of KRAS G13D (P01116-2 other isoform, or with tags, fused parts or gaps G13D): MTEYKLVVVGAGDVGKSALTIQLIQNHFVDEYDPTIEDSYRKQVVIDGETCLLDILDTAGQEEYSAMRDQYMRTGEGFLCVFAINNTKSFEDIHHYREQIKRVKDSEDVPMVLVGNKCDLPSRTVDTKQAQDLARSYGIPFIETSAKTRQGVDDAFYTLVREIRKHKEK
Chain of KRAS G13D (P62937 whole entry): as the sequence (P62937 whole entry) above

| Compound | EC50 [1] [µM] | IC50 [2] [µM] | IC50 [3] [µM] | IC50 [4] [µM] | IC50 [5] [µM] | IC50 [6] [µM] | IC50 [7] [µM] | IC50 [8] [µM] | IC50 [9] [µM] | IC50 [10] [µM] |
| --- | --- | --- | --- | --- | --- | --- | --- | --- | --- | --- |
| CCn1c(-c2cccnc2[C@H](C)OC)c2c3cc(ccc31)-c1cccc(c1)C[C@H](NC(=O)[C@H](C(C)C)N(C)C(=O)[C@H]1CCN(C(=O)C#CC3(N(C)C)CCOCC3)C1)C(=O)N1CCC[C@H](N1)C(=O)OCC(C)(C)C2 (atropisomer, axis not shown) [Example A532] | < 5 | < 0.01 | 0.01 to 0.1 | 1 to 10 | 1 to 10 | > 10 | 1 to 10 | 1 to 10 | > 10 | 0.01 to 0.1 |
| CC#CC(=O)N1CC[C@@]2(CCN([C@H](C(=O)N[C@H]3Cc4nc(cs4)-c4ccc5c(c4)c(c(-c4cccnc4[C@H](C)OC)n5CC)CC(C)(C)COC(=O)[C@@H]4CCCN(N4)C3=O)C(C)C)C2=O)C1 (atropisomer, axis not shown) [Example A535] | < 5 | 0.01 to 0.1 | 1 to 10 | 1 to 10 | 1 to 10 | > 10 | > 10 | > 10 | > 10 | 1 to 10 |
| C=CC(=O)N1CC[C@H](C(=O)N(C)[C@H](C(=O)N[C@H]2Cc3cc(O)cc(c3)-c3ccc4c(c3)c(c(-c3cc(CN(C)C)cnc3[C@H](C)OC)n4CC)CC(C)(C)COC(=O)[C@@H]3CCCN(N3)C2=O)C(C)C)C1 (atropisomer, axis not shown) [Example A536] | < 5 | 0.01 to 0.1 | 0.01 to 0.1 | 0.1 to 1 | 0.1 to 1 | 1 to 10 | 0.1 to 1 | 0.1 to 1 | 0.1 to 1 | 0.01 to 0.1 |
| CCn1c(-c2cccnc2[C@H](C)OC)c2c3cc(ccc31)-c1cc(cc(C(F)F)c1)C[C@H](NC(=O)C(COC1CN(C(=O)C#CC(C)(C)N(C)C)C1)C(C)C)C(=O)N1CCC[C@H](N1)C(=O)OCC(C)(C)C2 (mixture of isomers) [Example A404] | < 5 | 0.01 to 0.1 | 0.1 to 1 | > 10 | > 10 | > 10 | > 10 | > 10 | > 10 | 0.1 to 1 |
| C=CC(=O)N1CC(OCC(C(=O)N[C@H]2Cc3cccc(c3)-c3ccc4c(c3)c(c(-c3cccnc3[C@H](C)OC)n4CC(F)(F)F)CC(C)(C)COC(=O)[C@@H]3CCCN(N3)C2=O)C(C)C)C1 (mixture of isomers) [Example A453] | < 5 | 0.1 to 1 | 1 to 10 | > 10 | > 10 | > 10 | > 10 | > 10 | > 10 | 1 to 10 |
| C=CC(=O)N1CC(OCC(C(=O)N[C@H]2Cc3nc(cs3)-c3ccc4c(c3)c(c(-c3cccnc3[C@H](C)OC)n4CC)CC(C)(C)COC(=O)[C@@H]3CCCN(N3)C2=O)C(C)C)C1 (mixture of isomers) [Example A473] | < 5 | 0.01 to 0.1 | 0.1 to 1 | 1 to 10 | 1 to 10 | > 10 | 1 to 10 | 1 to 10 | 1 to 10 | 0.1 to 1 |
| CCn1c(-c2cccnc2[C@H](C)OC)c2c3cc(ccc31)-c1cccc(c1)C[C@H](NC(=O)[C@H](C(C)C)N(C)C(=O)[C@H]1CCN(C(=O)C#CC3CCO3)C1)C(=O)N1CCC[C@H](N1)C(=O)OCC(C)(C)C2 (mixture of isomers) [Example A509] | < 5 | < 0.01 | < 0.01 | 0.1 to 1 | 1 to 10 | > 10 | 1 to 10 | 1 to 10 | 1 to 10 | < 0.01 |
| CCn1c(-c2cccnc2[C@H](C)OC)c2c3cc(ccc31)-c1csc(n1)C[C@H](NC(=O)[C@H](C(C)C)N1CC[C@@]3(CCN(C(=O)C#CC(C)(C)N(C)C)C3)C1=O)C(=O)N1CCC[C@H](N1)C(=O)OCC(C)(C)C2 (single isomer, unassigned) [Example A425] | < 5 | < 0.01 | < 0.01 | 0.1 to 1 | 1 to 10 | > 10 | > 10 | > 10 | > 10 | 0.01 to 0.1 |
| C=CC(=O)N1CC[C@H](C(=O)N(C)[C@H](C(=O)N[C@H]2Cc3cc(O)cc(c3)-c3ccc4c(c3)c(c(-c3ccc(CN(C)C)nc3COC)n4CC)CC(C)(C)COC(=O)[C@@H]3CCCN(N3)C2=O)C(C)C)C1 [Example A103] | < 5 | 0.1 to 1 | 0.01 to 0.1 | 1 to 10 | 0.1 to 1 | 1 to 10 | 0.1 to 1 | 1 to 10 | 1 to 10 | 0.01 to 0.1 |
| C=CC(=O)N1CC[C@H](C(=O)N(C)[C@@H](C(=O)N[C@H]2Cc3cc(O)cc(c3)-c3ccc4c(c3)c(c(-c3cccc(CN(C)C)c3)n4CC)CC(C)(C)COC(=O)[C@@H]3CCCN(N3)C2=O)C(C)C)C1 [Example A106] | < 5 | 0.1 to 1 | 1 to 10 | > 10 | > 10 | > 10 | > 10 | > 10 | > 10 | 1 to 10 |
| CCn1c(-c2cncnc2)c2c3cc(ncc31)-c1cc(O)cc(c1)C[C@H](NC(=O)[C@H](C(C)C)N(C)C(=O)[C@H]1CCN(C(=O)C#CCN(C)C)C1)C(=O)N1CCC[C@H](N1)C(=O)OCC(C)(C)C2 [Example A108] | < 5 | < 0.01 | < 0.01 | 0.01 to 0.1 | 1 to 10 | 1 to 10 | 1 to 10 | 1 to 10 | 1 to 10 | < 0.01 |
| C=CC(=O)N1CC[C@H](C(=O)N(C)[C@H](C(=O)N[C@H]2Cc3cc(O)cc(c3)-c3ccc4c(c3)c(c(-c3cc(CN(C)C)nn3C)n4CC)CC(C)(C)COC(=O)[C@@H]3CCCN(N3)C2=O)C(C)C)C1 [Example A109] | < 5 | 0.1 to 1 | 0.1 to 1 | > 10 | 1 to 10 | > 10 | 1 to 10 | > 10 | > 10 | 0.1 to 1 |
| C=CC(=O)N(C)[C@H](C(=O)N[C@H]1Cc2cc(O)cc(c2)-c2ccc3c(c2)c(c(-c2cccnc2COC)n3CC)CC(C)(C)COC(=O)[C@@H]2CCCN(N2)C1=O)C(C)C [Example A110] | < 5 | 0.1 to 1 | 0.1 to 1 | 0.1 to 1 | 1 to 10 | 1 to 10 | 1 to 10 | 0.1 to 1 | 1 to 10 | 1 to 10 |
| C=CC(=O)N1CC[C@H](C(=O)N(C)[C@H](C(=O)N[C@H]2Cc3cc(O)cc(c3)-c3ccc4c(c3)c(c(-c3ccc(CN(C)C)c(COC)c3)n4CC)CC(C)(C)COC(=O)[C@@H]3CCCN(N3)C2=O)C(C)C)C1 [Example A111] | < 5 | 0.01 to 0.1 | 0.1 to 1 | 1 to 10 | 1 to 10 | > 10 | 1 to 10 | 1 to 10 | 1 to 10 | 0.1 to 1 |
